± gives the standard deviation of the averaged measurements.
Tests used:
Test in all cases: level (log10 ratio to DMSO vehicle control); higher = higher biomarker level / cell amount than vehicle control
Settings in all cases: in DMSO
[1] = compound: C=C(C)C(=O)OCC(F)(F)C(F)(F)C(F)(F)C(F)(F)C(F)(F)C(F)(F)C(F)(F)F
Experimental: (§1)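 BioMAP Diversity Plus panel of 12 human primary cell co-culture systems (3C, 4H, LPS, SAg, BT, BF4T, BE3C, CASM3C, HDF3CGF, KF3CT, MyoF, Mphg). Compounds were added 1 h before stimulation and left for 24 h (MyoF 48 h; BT 72 h for soluble read-outs or 6 d for IgG). Biomarkers were read by ELISA, cytotoxicity by SRB, PBMC viability and proliferation by Alamar Blue. Each well value was divided by the mean of 8 DMSO control wells on the same plate and log10 transformed; duplicate blinded samples were tested at 4 concentrations.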

1-(Perfluorohexyl)octane = compound: CCCCCCCCC(F)(F)C(F)(F)C(F)(F)C(F)(F)C(F)(F)C(F)(F)F [1-(Perfluorohexyl)octane]
Experimental: as §1

Perfluorohexanoic acid = compound: O=C(O)C(F)(F)C(F)(F)C(F)(F)C(F)(F)C(F)(F)F [Perfluorohexanoic acid]
Experimental: as §1

[2] = compound: O=C(O)C(F)(F)OC(F)(F)C(F)(F)OC(F)(F)C(F)(F)C(F)(F)C(F)(F)F [Perfluoro-3,6-dioxadecanoic acid]
Experimental: as §1

[3] = compound: O=P(O)(O)CCC(F)(F)C(F)(F)C(F)(F)C(F)(F)C(F)(F)C(F)(F)C(F)(F)C(F)(F)F [((Perfluorooctyl)ethyl)phosphonic acid]
Experimental: as §1

[4] = compound: O=S(=O)(O)C(F)(F)C(F)(F)C(F)(F)C(F)(F)C(F)(F)C(F)(F)C(F)(F)C(F)(F)F [Potassium perfluorooctanesulfonate]
Experimental: as §1

[5] = compound: OCC(F)(F)C(F)(F)C(F)(F)C(F)(F)C(F)(F)C(F)F [1H,1H,7H-Dodecafluoro-1-heptanol]
Experimental: as §1

| Test System | level (log10) ([1]; 6700 nM) | level (log10) ([1]; 20000 nM) | level (log10) (1-(Perfluorohexyl)octane; 6700 nM) | level (log10) (1-(Perfluorohexyl)octane; 20000 nM) | level (log10) (Perfluorohexanoic acid; 6700 nM) | level (log10) (Perfluorohexanoic acid; 20000 nM) | level (log10) (Perfluorohexanoic acid; 60000 nM) | level (log10) ([2]; 6700 nM) | level (log10) ([2]; 20000 nM) | level (log10) ([2]; 60000 nM) | level (log10) ([3]; 6700 nM) | level (log10) ([3]; 20000 nM) | level (log10) ([3]; 60000 nM) | level (log10) ([4]; 6700 nM) | level (log10) ([4]; 20000 nM) | level (log10) ([4]; 60000 nM) | level (log10) ([5]; 6700 nM) | level (log10) ([5]; 20000 nM) | level (log10) ([5]; 60000 nM) |
| --- | --- | --- | --- | --- | --- | --- | --- | --- | --- | --- | --- | --- | --- | --- | --- | --- | --- | --- | --- |
| LPS:CXCL8/IL-8 | -0.0045 ± 0.0092 | 0.033 ± 0.011 | 0.0335 ± 0.00071 | 0.0405 ± 0.026 | 0.0035 ± 0.016 | 0.011 ± 0.0028 | 0.0575 ± 0.0035 | -0.0175 ± 0.0092 | -0.0145 ± 0.013 | 0.018 ± 0.02 | -0.021 ± 0.021 | -0.0255 ± 0.011 | -0.04 ± 0.0057 | 0.0255 ± 0.067 | 0.0435 ± 0.0092 | 0.061 ± 0.05 | 0.0055 ± 0.029 | 0.0005 ± 0.022 | 0.0025 ± 0.011 |
| LPS:IL-1alpha | 0.016 ± 0.048 | 0.044 ± 0.016 | -0.0215 ± 0.016 | 0.001 ± 0.0057 | 0.0135 ± 0.0064 | 0.0145 ± 0.0092 | -0.003 ± 0.02 | -0.008 ± 0.0085 | -0.0225 ± 0.03 | -0.04 ± 0.013 | -0.0215 ± 0.043 | -0.0045 ± 0.029 | -0.024 ± 0.13 | -0.022 ± 0.0014 | -0.0195 ± 0.011 | -0.0145 ± 0.012 | -0.006 ± 0.0042 | -0.031 ± 0.02 | 0.0025 ± 0.046 |
| LPS:M-CSF | 0.005 ± 0.017 | 0.03 ± 0.017 | -0.0065 ± 0.021 | 0.0235 ± 0.037 | 0.002 ± 0.0099 | -0.0125 ± 0.015 | -0.0055 ± 0.025 | 0.006 ± 0.018 | -0.0115 ± 0.03 | -0.013 ± 0.0057 | -0.0385 ± 0.018 | -0.052 ± 0.037 | -0.183 ± 0.072 | -0.0215 ± 0.016 | 0 ± 0.024 | 0.008 ± 0.014 | 0.0025 ± 0.00071 | 0.0075 ± 0.0035 | 0.01 ± 0.038 |
| LPS:SRB | -0.0025 ± 0.0078 | -0.0045 ± 0.005 | 0.0035 ± 0.0078 | 0.0035 ± 0.011 | -0.013 ± 0.0071 | -0.009 | -0.0065 ± 0.0078 | -0.01 ± 0.014 | -0.0025 ± 0.005 | -0.105 ± 0.069 | -0.01 ± 0.0042 | -0.0195 ± 0.011 | -0.08 ± 0.047 | -0.009 ± 0.018 | -0.007 ± 0.021 | -0.001 ± 0.0057 | -0.008 ± 0.0014 | -0.006 ± 0.0042 | -0.0015 ± 0.015 |
| LPS:sPGE2 | -0.0035 ± 0.05 | -0.031 ± 0.034 | 0.011 ± 0.018 | 0.02 ± 0.0042 | 0.025 ± 0.052 | 0.013 ± 0.021 | -0.009 ± 0.041 | -0.105 ± 0.011 | -0.161 ± 0.0078 | -0.248 ± 0.03 | 0.0605 ± 0.0021 | 0.0675 ± 0.011 | 0.17 ± 0.023 | -0.033 ± 0.042 | -0.0005 ± 0.03 | -0.053 ± 0.096 | -0.0455 ± 0.066 | -0.0115 ± 0.016 | -0.011 ± 0.0057 |
| LPS:sTNF-alpha | 0.0045 ± 0.088 | 0.0175 ± 0.011 | 0.0005 ± 0.0064 | -0.0015 ± 0.013 | -0.009 ± 0.0014 | -0.0005 ± 0.021 | -0.0515 ± 0.0021 | 0.012 ± 0.011 | 0.0155 ± 0.018 | 0.0135 ± 0.015 | 0.0165 ± 0.088 | 0.008 ± 0.1 | -0.004 ± 0.18 | -0.03 ± 0.073 | -0.047 ± 0.1 | -0.0915 ± 0.15 | -0.06 ± 0.028 | -0.04 ± 0.042 | -0.023 ± 0.073 |
| SAg:CCL2/MCP-1 | -0.0015 ± 0.0035 | 0.0175 ± 0.0092 | -0.01 | 0.0015 ± 0.018 | -0.01 ± 0.0057 | -0.0255 ± 0.0078 | 0.0135 ± 0.018 | 0.017 ± 0.088 | -0.0255 ± 0.00071 | -0.0895 ± 0.026 | 0.006 ± 0.0042 | 0.004 ± 0.016 | -0.0195 ± 0.053 | -0.015 ± 0.0071 | -0.0025 ± 0.0021 | 0.004 ± 0.013 | 0.0005 ± 0.005 | -0.0035 ± 0.00071 | 0.0225 ± 0.029 |
| SAg:CD38 | -0.0195 ± 0.00071 | 0.011 ± 0.0071 | 0.0015 ± 0.0078 | 0.0105 ± 0.00071 | 0.003 ± 0.023 | -0.004 ± 0.0014 | -0.0005 ± 0.025 | -0.0115 ± 0.0021 | -0.021 ± 0.0057 | -0.061 ± 0.069 | -0.015 ± 0.024 | -0.0155 ± 0.005 | -0.0945 ± 0.023 | -0.0085 ± 0.0092 | -0.01 ± 0.013 | -0.023 ± 0.02 | 0.0005 ± 0.013 | 0.0105 ± 0.019 | 0.0075 ± 0.022 |

— the supplement of paper PMC10331698
